Results as given in US7786116B2, “2-amino-quinoline derivatives useful as inhibitors of β-secretase (BACE)” (Janssen Pharmaceutica N.V., priority 2008, dated 2010).

Target: human BACE-1 (Homo sapiens, UniProt P56817)
Assay: in vitro BACE Assay-1 (CEREP, fluorogenic substrate)
Assay type: biochemical
Conditions: for % Inh @ 1 μM / inhibition at 1 µM: test compound at 1 μM; for % Inh @ 10 μM / inhibition at 10 µM: test compound at 10 μM; for IC50: recombinant enzyme, pH 4.5, 60 min at 37° C.
Description: This assay was run by CEREP (Catalog Ref. 761-B, Referred to SOP No. 1C131; ERMOLIEFF, J., LOY, J. A., KOELSCH, G. and TANG, J., Proteolytic activation of recombinant pro-memapsin 2 (pro-BACE) studied with new fluorogenic substrates, Biochemistry, (2000) Vol. 39, p. 12450).
More specifically the assay, run at 50 μL in a 96 well plate, evaluated the effect of test compound on the activity of the human BACE-1 quantified by measuring the formation of Mca-S-E-V-N-L-NH2 from Mca-S-E-V-N-L-D-A-E-F-R-K(Dnp)-R—R—NH2, using a recombinant enzyme.
The test compound, reference compound or water (control) was added to a buffer containing 0.09 M sodium acetate (pH 4.5) and 0.25 μg BACE-1. Compound interference with the fluorimetric detection method due to autofluorescence was then checked by measurements at the wavelengths defined to evaluate the enzyme activity. Thereafter, the reaction was initiated by adding 7.5 μM of the substrate Mca-S-E-V-N-L-D-A-E-F-R-K(Dnp)-R—R—NH2 and the mixture was incubated for 60 min at 37° C. For control basal measurement, the substrate was omitted from the reaction mixture. Immediately after the incubation, the fluorescence intensity emitted by the reaction product Mca-S-E-V-N-L-NH2 was measured at λex=320 nm and λem=405 nm using a microplate reader (Ultra, Tecan). The standard inhibitory reference compound was OM99-2, which was tested in each experiment at several concentrations to obtain an inhibition curve from which its IC50 value was calculated.
Representative compounds of the present invention were tested in the assay as described above, with results as listed in Table 3, below.

Chain of human BACE-1 (P56817 46-501): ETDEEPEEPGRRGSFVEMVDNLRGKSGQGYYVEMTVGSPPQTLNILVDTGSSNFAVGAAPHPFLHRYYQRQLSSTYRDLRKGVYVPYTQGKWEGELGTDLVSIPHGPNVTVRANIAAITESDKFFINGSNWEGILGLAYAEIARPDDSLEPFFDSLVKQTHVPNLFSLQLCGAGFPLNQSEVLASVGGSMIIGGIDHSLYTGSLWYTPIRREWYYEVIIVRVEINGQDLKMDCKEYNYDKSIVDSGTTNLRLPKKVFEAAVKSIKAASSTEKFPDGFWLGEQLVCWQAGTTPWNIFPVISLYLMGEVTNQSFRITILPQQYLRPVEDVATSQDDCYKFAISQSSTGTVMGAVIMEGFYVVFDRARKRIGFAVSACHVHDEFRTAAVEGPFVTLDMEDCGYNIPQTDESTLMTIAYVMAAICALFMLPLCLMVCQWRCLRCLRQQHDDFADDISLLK

Structure (SMILES)	% Inh @ 10 μM [%]	IC50 [nM]	inhibition at 10 µM [%]	further results
CN(C(=O)CCC(c1cc2cc(-c3ccccc3F)ccc2nc1N)C1CCCCC1)C1CCCCC1 (single isomer, unassigned) [Compound 11]				% Inh @ 1 μM: 28%
Nc1nc2ccc(-c3ccccc3F)cc2cc1C(CCC(=O)NCCO)C1CCOCC1 (stereo not drawn) [Compound 1]	34			
Nc1nc2ccc(-c3ccccc3F)cc2cc1C(CCC(=O)NCC1CC1)C1CCOCC1 (stereo not drawn) [Compound 2]	59			
CN(CCCC(c1cc2cc(-c3ccccc3F)ccc2nc1N)C1CCOCC1)CC1CC1 (stereo not drawn) [Compound 3]	35			
CN(CC1CC1)C(=O)CCC(c1cc2cc(-c3ccccc3F)ccc2nc1N)C1CCOCC1 (stereo not drawn) [Compound 4]	71			
Nc1nc2ccc(-c3ccccc3F)cc2cc1C(CCC(=O)NCC1CCCCC1)C1CCOCC1 (stereo not drawn) [Compound 12]		350	74.5	
CN(CCCC(c1cc2cc(-c3ccccc3F)ccc2nc1N)C1CCOCC1)CC1CCCCC1 (stereo not drawn) [Compound 13]	77			
CN(CC1CCCCC1)C(=O)CCC(c1cc2cc(-c3ccccc3F)ccc2nc1N)C1CCOCC1 (stereo not drawn) [Compound 18]	77			
Nc1nc2ccc(-c3cccs3)cc2cc1C(CCC(=O)NC12CC3CC(CC(C3)C1)C2)C1CCOCC1 (stereo not drawn) [Compound 21]		690		inhibition at 1 µM: 87%
Nc1nc2ccc(-c3ccccc3F)cc2cc1C(CCC(=O)NC12CC3CC(CC(C3)C1)C2)C1CCOCC1 (stereo not drawn) [Compound 23]		570		inhibition at 1 µM: 97%
Cn1ccnc1CN(CCC(C)(C)C)C(=O)CCC(c1cc2cc(-c3ccc[nH]3)ccc2nc1N)C1CCOCC1 (stereo not drawn) [Compound 24]	93	1400		
Cn1ccnc1CN(CCC(C)(C)C)C(=O)CCC(c1cc2cc(-c3ccccc3)ccc2nc1N)C1CCOCC1 (stereo not drawn) [Compound 25]	72	320		
Cn1ccnc1N(CCC(C)(C)C)C(=O)CCC(c1cc2cc(-c3ccccn3)ccc2nc1N)C1CCOCC1 (stereo not drawn) [Compound 27]		1800	91	
Cn1ccnc1CN(CCC(C)(C)C)C(=O)CCC(c1cc2cc(-c3cccs3)ccc2nc1N)C1CCOCC1 (stereo not drawn) [Compound 31, 4-(2-Amino-6-thiophen-2-yl-quinolin-3-yl)-N-(3,3-dimethyl-butyl)-N-(1-methyl-1H-imidazol-2-ylmethyl)-4-(tetrahydro-pyran-4-yl)-butyramide]		420	98	inhibition at 1 µM: 79%
CC(C)(C)CCN(Cc1ccccc1)C(=O)CCC(c1cc2cc(-c3ccccc3F)ccc2nc1N)C1CCOCC1 (stereo not drawn) [Compound 34]		390	68	
Cn1ccnc1CN(CCC(C)(C)C)C(=O)CCC(c1cc2cc(-c3ccc(F)cc3)ccc2nc1N)C1CCOCC1 (stereo not drawn) [Compound 37]	82			
Cn1ccnc1N(CCC(C)(C)C)C(=O)CCC(c1cc2cc(-c3cccc(F)c3)ccc2nc1N)C1CCOCC1 (stereo not drawn) [Compound 38]		470	69	
Nc1nc2ccc(-c3ccccc3F)cc2cc1C(CCC(=O)N(CCN1CCCC1)C1CCCCC1)C1CCOCC1 (stereo not drawn) [Compound 41]		450	65	
CC(C)(C)CCN(CCCC(c1cc2cc(-c3ccccc3F)ccc2nc1N)C1CCOCC1)CCN1CCOCC1 (stereo not drawn) [Compound 43, 3-[4-[(3,3-Dimethyl-butyl)-(2-morpholin-4-yl-ethyl)-amino]-1-(tetrahydro-pyran-4-yl)-butyl]-6-(2-fluoro-phenyl)-quinolin-2-ylamine]			78	
CC(C)(C)CCN(CCN1CCOCC1)C(=O)CCC(c1cc2cc(-c3ccccc3F)ccc2nc1N)C1CCOCC1 (stereo not drawn) [Compound 47, 4-[2-Amino-6-(2-fluoro-phenyl)-quinolin-3-yl]-N-(3,3-dimethyl-butyl)-N-(2-morpholin-4-yl-ethyl)-4-(tetrahydro-pyran-4-yl)-butyramide]		370	58	
Cn1ccnc1CN(CCC(C)(C)C)C(=O)CCC(c1cc2cc(-c3cccc4cc[nH]c34)ccc2nc1N)C1CCOCC1 (stereo not drawn) [Compound 49]	99			
CCOc1ccc(-c2ccc3nc(N)c(C(CCC(=O)N(CCC(C)(C)C)Cc4nccn4C)C4CCOCC4)cc3c2)cc1 (stereo not drawn) [Compound 50]	22			
COc1cc2nc(N)c(C(CCCN(CCN3CCOCC3)C3CCCCC3)C3CCOCC3)cc2cc1-c1ccccc1F (stereo not drawn) [Compound 52]		3600	55	
COc1cc2nc(N)c(C(CCC(=O)N(CCN3CCOCC3)C3CCCCC3)C3CCOCC3)cc2cc1-c1ccccc1F (stereo not drawn) [Compound 53]		2200	55	
Cn1ccnc1CN(CCC(C)(C)C)C(=O)CCC(c1cc2cc(-c3cccc(C(F)(F)F)c3)ccc2nc1N)C1CCOCC1 (stereo not drawn) [Compound 54]	8			
Cn1ccnc1CN(CCC(C)(C)C)C(=O)CCC(c1cc2cc(-c3ccccc3C(F)(F)F)ccc2nc1N)C1CCOCC1 (stereo not drawn) [Compound 55]	90	2400		
Cn1ccnc1CN(CCC(C)(C)C)C(=O)CCC(c1cc2cc(-c3ccccc3OC(F)(F)F)ccc2nc1N)C1CCOCC1 (stereo not drawn) [Compound 56]	73			

Now from value to compound, other results behind:

% Inh @ 10 μM [%]	IC50 [nM]	inhibition at 10 µM [%]	Structure (SMILES)	further results
	> 5000	43	CC(C)(CO)CNCCCC(c1cc2cc(-c3ccccc3F)ccc2nc1N)C1CCOCC1 (stereo not drawn) [Compound 6]	
	260	83	CC(C)(C)CCNC(=O)CCC(c1cc2cc(-c3ccccc3F)ccc2nc1N)C1CCOCC1 (stereo not drawn) [Compound 7]	
	830	47	CC(C)(C)OCCNCCCC(c1cc2cc(-c3ccccc3F)ccc2nc1N)C1CCOCC1 (stereo not drawn) [Compound 10]	
	540	113	CC(C)(C)OCCNC(=O)CCC(c1cc2cc(-c3ccccc3F)ccc2nc1N)C1CCOCC1 (stereo not drawn) [Compound 15]	
	> 620	88	COc1cc2nc(N)c(C(CCCNCCC(C)(C)C)C3CCOCC3)cc2cc1-c1ccccc1F (stereo not drawn) [Compound 16]	
	1400	73	COc1cc2nc(N)c(C(CCn3cc(C(C)(C)C)nn3)C3CCOCC3)cc2cc1-c1ccccc1F (stereo not drawn) [Compound 17]	
14			COc1cc2nc(N)c(C(CCC(=O)NCCC(C)(C)C)C3CCOCC3)cc2cc1-c1ccccc1F (stereo not drawn) [Compound 19]	
	890	92	COc1ccccc1-c1cc2cc(C(CCn3cc(C(C)(C)C)nn3)C3CCOCC3)c(N)nc2cc1OC (stereo not drawn) [Compound 20]	
	150	65	CCOc1cc2nc(N)c(C(CCn3cc(C(C)(C)C)nn3)C3CCOCC3)cc2cc1-c1ccccc1F (stereo not drawn) [Compound 22, 3-[3-(4-tert-Butyl-[1,2,3]triazol-1-yl)-1-(tetrahydro-pyran-4-yl)-propyl]-7-ethoxy-6-(2-fluoro-phenyl)-quinolin-2-ylamine]	
	880	74	CC(C)(C)CCN(CCCC(c1cc2cc(-c3ccccc3F)ccc2nc1N)C1CCOCC1)Cc1ccccn1 (stereo not drawn) [Compound 28]	
	1500		Cn1ccnc1CN(CCCC(c1cc2cc(-c3ccccc3F)ccc2nc1N)C1CCOCC1)CCC(C)(C)C (stereo not drawn) [Compound 29]	% Inh @ 1 μM: 54%
	330	116	CC(C)(C)CCN(Cc1ccccn1)C(=O)CCC(c1cc2cc(-c3ccccc3F)ccc2nc1N)C1CCOCC1 (stereo not drawn) [Compound 35]	
	500		COc1ccccc1-c1ccc2nc(N)c(C(CCCN(CCC(C)(C)C)c3nccn3C)C3CCOCC3)cc2c1 (stereo not drawn) [Compound 36]	inhibition at 1 µM: 76%
	350		Cn1ccnc1CN(CCC(C)(C)C)C(=O)CCC(c1cc2cc(-c3ccccc3F)ccc2nc1N)C1CCOCC1 (stereo not drawn) [Compound 39]	% Inh @ 1 μM: 93%
	320	65	CC(C)(C)CCN(Cc1cncs1)C(=O)CCC(c1cc2cc(-c3ccccc3F)ccc2nc1N)C1CCOCC1 (stereo not drawn) [Compound 42]	
	530		COc1ccccc1-c1ccc2nc(N)c(C(CCC(=O)N(CCC(C)(C)C)Cc3nccn3C)C3CCOCC3)cc2c1 (stereo not drawn) [Compound 45]	% Inh @ 1 μM: 94%
	320	99	CCOc1ccccc1-c1ccc2nc(N)c(C(CCC(=O)N(CCC(C)(C)C)Cc3nccn3C)C3CCOCC3)cc2c1 (stereo not drawn) [Compound 51, 4-[2-Amino-6-(2-ethoxy-phenyl)-quinolin-3-yl]-N-(3,3-dimethyl-butyl)-N-(1-methyl-1H-imidazol-2-ylmethyl)-4-(tetrahydro-pyran-4-yl)-butyramide]	
